Tests used:
[1] = test system: Lambsquarter (Chenopodium album); test: Preemergence herbicidal activity, soil spray; format: in vivo; details: Chenopodium album, pre-emergence, 504 h, Table 5, visual score after 3 weeks, read-out: Pre-emergent % control CHEAL; for pest or weed control at 560 ppm: rate 560 ppm, 100 complete kill or no germination; for pest or weed control at 140 ppm: rate 140 ppm
Summary of the method: (§1)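 Soil spray, preemergence: loam/sand 70:30 (pH ~8.1, OM ~1.5%) → seeded pots treated on surface; compound in acetone/DMSO 97:3, serially diluted into water/Tween 155 (99.9:0.1). Controls got aqueous carrier only. Greenhouse: ~15 h light, 23-29° C day / 22-28° C night.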

[2] = test system: Pigweed (redroot) (Amaranthus retroflexus); test: Preemergence herbicidal activity, soil spray; format: in vivo; details: Amaranthus retroflexus, pre-emergence, 504 h, Table 5, visual score after 3 weeks, read-out: Pre-emergent % control AMARE; for pest or weed control at 560 ppm: rate 560 ppm; for pest or weed control at 140 ppm: rate 140 ppm
Summary of the method: as §1

[3] = test system: Giant Foxtail (Setaria faberi); test: Preemergence herbicidal activity, soil spray; format: in vivo; details: Setaria faberi, pre-emergence, 504 h, Table 5, visual score after 3 weeks, read-out: Pre-emergent % control SETFA; for pest or weed control at 560 ppm: rate 560 ppm; for pest or weed control at 140 ppm: rate 140 ppm
Summary of the method: as §1

[4] = test system: Crabgrass(large) (Digitaria sanguinalis); test: Preemergence herbicidal activity, soil spray; format: in vivo; details: Digitaria sanguinalis, pre-emergence, 504 h, Table 5, visual score after 3 weeks, read-out: Pre-emergent % control DIGSA; for pest or weed control at 560 ppm: rate 560 ppm; for pest or weed control at 140 ppm: rate 140 ppm
Summary of the method: as §1

[5] = test system: Wheat(var. Merica) (Triticum aestivum); test: Postemergence herbicidal activity, selectivity to wheat; format: in vivo; details: post-emergence, 336 h, Table 3, rate 62.5 (unit inferred), crop injury, read-out: Post-emergent % control TRZAS
Procedure: Seeds of the desired test plant species were planted in Grace-Sierra MetroMix® 306 planting mixture, which typically has a pH of 6.0 to 6.8 and an organic matter content of about 30 percent, in plastic pots with a surface area of 64 square centimeters. When required to ensure good germination and healthy plants, a fungicide treatment and/or other chemical or physical treatment was applied. The plants were grown for 7-21 days in a greenhouse with an approximate 15 hr photoperiod which was maintained at about 23-29° C. during the day and 22-28° C. during the night. Nutrients and water were added on a regular basis and supplemental lighting was provided with overhead metal halide 1000-Watt lamps as necessary. The plants were employed for testing when they reached the first or second true leaf stage. A weighed amount, determined by the highest rate to be tested, of each test compound was placed in a 20 mL glass vial and was dissolved in 4 mL of a 97:3 v/v (volume/volume) mixture of acetone and dimethyl sulfoxide (DMSO) to obtain concentrated stock solutions. […] The concentrated stock solutions obtained were diluted with an aqueous mixture containing acetone, water, isopropyl alcohol, DMSO, At plus 411 F crop oil concentrate, and Triton X-155 surfactant in a 48.5:39:10:1.5:1.0:0.02 v/v ratio to obtain spray solutions of known concentration. The solutions containing the highest concentration to be tested were prepared by diluting 2 mL aliquots of the stock solution with 13 mL of the mixture and lower concentrations were prepared by serial dilution of the stock solution. Approximately 1.5 mL aliquots of each solution of known concentration were sprayed evenly onto each of the test plant pots using a DeVilbiss atomizer driven by compressed air pressure of […] (140 to 280 kiloPascals) to obtain thorough coverage of each plant. Control plants were sprayed in the same manner with the aqueous mixture. In this test an application rate of 1 ppm results in the application of approximately 1 g/Ha. The treated plants and control plants were placed in a greenhouse as described above and watered by sub-irrigation to prevent wash-off of the test compounds. After 2 weeks the condition of the test plants as compared with that of the untreated plants was determined visually and scored on a scale of 0 to 100 percent where 0 corresponds to no injury and 100 corresponds to complete kill.

[6] = test system: Cocklebur (Xanthium strumarium); test: Postemergence herbicidal activity, greenhouse spray; format: in vivo; details: Xanthium strumarium, post-emergence, 336 h, visual score after 2 weeks, read-out: Post-emergent % control XANST; for pest or weed control at 250 ppm / pest or weed control at 500 ppm: Table 1; for pest or weed control at 250 ppm: rate 250 ppm; for pest or weed control at 500 ppm: rate 500 ppm, 0 no injury, 100 complete kill; for pest or weed control at 125 ppm: Table 2, rate 125 ppm
Summary of the method: (§2)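 Plants grown 7-21 days in a greenhouse (~15 hr photoperiod, about 23-29° C day/22-28° C night) and treated at the first or second true leaf stage. Compounds in acetone:DMSO 97:3 were diluted into an aqueous acetone/isopropyl alcohol/crop oil/Triton X-155 carrier and sprayed to thorough coverage. Controls received carrier alone.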

[7] = test system: Lambsquarter (Chenopodium album); test: as above; format: in vivo; details: Chenopodium album, post-emergence, 336 h, visual score after 2 weeks, read-out: Post-emergent % control CHEAL; for pest or weed control at 250 ppm / pest or weed control at 500 ppm: Table 1; for pest or weed control at 250 ppm: rate 250 ppm; for pest or weed control at 500 ppm: rate 500 ppm; for pest or weed control at 125 ppm: Table 2, rate 125 ppm
Summary of the method: as §2

[8] = test system: Yellow nutsedge (Cyperus esculentus); test: as above; format: in vivo; details: Cyperus, post-emergence, 336 h, visual score after 2 weeks, read-out: Post-emergent % control CYPES; for pest or weed control at 250 ppm / pest or weed control at 500 ppm: Table 1; for pest or weed control at 250 ppm: rate 250 ppm; for pest or weed control at 500 ppm: rate 500 ppm; for pest or weed control at 125 ppm: Table 2, rate 125 ppm
Summary of the method: as §2

[9] = test system: Pigweed (redroot) (Amaranthus retroflexus); test: as above; format: in vivo; details: Amaranthus retroflexus, post-emergence, 336 h; Table 3; rate 62.5 (unit inferred); visual score after 2 weeks; read-out: Post-emergent % control AMARE
Summary of the method: as §2

[10] = test system: Barnyardgrass (Echinochloa crus-galli); test: as above; format: in vivo; details: Echinochloa crus-galli, post-emergence, 336 h, visual score after 2 weeks, read-out: Post-emergent % control ECHCG; for pest or weed control at 250 ppm / pest or weed control at 500 ppm: Table 1; for pest or weed control at 250 ppm: rate 250 ppm; for pest or weed control at 500 ppm: rate 500 ppm; for pest or weed control at 125 ppm: Table 2, rate 125 ppm
Summary of the method: as §2

| SMILES | pest or weed control at 560 ppm [1] | pest or weed control at 560 ppm [2] | pest or weed control at 560 ppm [3] | pest or weed control at 560 ppm [4] | melting point | pest or weed control at 62.5 µg/mL [5] | pest or weed control at 250 ppm [6] | pest or weed control at 62.5 µg/mL [9] | pest or weed control at 500 ppm [6] | pest or weed control at 500 ppm [7] | pest or weed control at 500 ppm [8] | pest or weed control at 500 ppm [10] | pest or weed control at 140 ppm [1] | pest or weed control at 140 ppm [2] | pest or weed control at 140 ppm [3] | pest or weed control at 140 ppm [4] | pest or weed control at 125 ppm [6] | pest or weed control at 125 ppm [7] | pest or weed control at 125 ppm [8] | pest or weed control at 125 ppm [10] | also measured |
| --- | --- | --- | --- | --- | --- | --- | --- | --- | --- | --- | --- | --- | --- | --- | --- | --- | --- | --- | --- | --- | --- |
| COC(=O)c1nc(-c2ccc(C)cc2)cc(N)c1Cl [Compound 20, Methyl 4-amino-3-chloro-6-(4-methylphenyl)pyridine-2-carboxylate] | 100% | 100% | 100% | 100% | 111 to 113 °C | 10% | 100% | 100% |  |  |  |  |  |  |  |  |  |  |  |  | pest or weed control at 250 ppm [7]: 100%; pest or weed control at 250 ppm [8]: 50%; pest or weed control at 250 ppm [10]: 70% |
| COC(=O)c1nc(-c2ccc3c(c2)OCO3)cc(N)c1Cl [Compound 29, Methyl 4-amino-3-chloro-6-(3,4-methylenedioxyphenyl)pyridine-2-carboxylate] | 100% | 95% | 90% | 100% | 184 °C | 10% |  | 90% | 100% | 100% | 80% | 95% |  |  |  |  |  |  |  |  |  |
| COC(=O)c1nc(-c2ccc(Cl)cc2F)cc(NC(C)=O)c1Cl [Compound 52, Methyl 4-acetamido-3-chloro-6-(4-chloro-2-fluorophenyl)pyridine-2-carboxylate] |  |  |  |  | 134 to 135 °C | 10% |  | 70% | 100% | 100% | 40% | 90% | 100% | 100% | 95% | 100% |  |  |  |  |  |
| Cc1ccc(-c2cc(N)c(Cl)c(C(=O)O)n2)cc1C [Compound 132, 4-amino-3-chloro-6-(3,4-dimethylphenyl)pyridine-2-carboxylic acid] |  |  |  |  | 192 to 194 °C | 0% |  | 70% | 100% | 90% | 0% | 80% | 100% | 90% | 95% | 100% |  |  |  |  |  |
| Nc1c(F)c(-c2ccc3c(c2)OCO3)nc(C(=O)O)c1Cl [Compound 196, 4-Amino-3-chloro-5-fluoro-6-(3,4-methylenedioxyphenyl)pyridine-2-carboxylic acid] | 100% | 100% | 100% | 100% | 169 °C |  | 100% |  |  |  |  |  |  |  |  |  | 100% | 100% | 100% | 100% | pest or weed control at 250 ppm [7]: 100%; pest or weed control at 250 ppm [8]: 98%; pest or weed control at 250 ppm [10]: 100% |
| Nc1c(F)c(-c2ccc3c(c2)CCO3)nc(C(=O)O)c1Cl [Compound 197, 4-Amino-3-chloro-5-fluoro-6-(2,3-dihydro-5-benzofuranyl)pyridine-2-carboxylic acid] | 100% | 100% | 100% | 100% | 171 °C |  | 100% |  |  |  |  |  |  |  |  |  | 100% | 100% | 85% | 85% | pest or weed control at 250 ppm [7]: 100%; pest or weed control at 250 ppm [8]: 95%; pest or weed control at 250 ppm [10]: 90% |
| Nc1c(Cl)c(C(=O)O)nc(-c2ccc(Cl)cc2)c1Cl [Compound 198, 4-Amino-3,5-dichloro-6-(4-chlorophenyl)pyridine-2-carboxylic acid] | 100% | 100% | 90% | 80% | 164 to 165 °C |  |  |  | 100% | 100% | 90% | 90% |  |  |  |  | 100% | 100% | 98% | 70% |  |
| Nc1c(F)c(C(=O)O)nc(-c2ccccc2Cl)c1F [Compound 202, 4-Amino-3,5-difluoro-6-(6-chlorophenyl)pyridine-2-carboxylic acid] |  |  |  |  | 166 to 167 °C (dec.) |  |  |  | 100% | 100% | 95% | 100% | 95% | 100% | 95% | 100% | 100% | 100% | 80% | 70% |  |
| Cc1ccc(-c2nc(C(=O)O)c(F)c(N)c2F)cc1 [Compound 203, 4-Amino-3,5-difluoro-6-(4-methylphenyl)pyridine-2-carboxylic acid] |  |  |  |  | 144 to 145 °C |  |  |  | 100% | 100% | 95% | 95% | 95% | 100% | 85% | 100% |  |  |  |  |  |
